# From patent US9957271B2, “Substituted bicyclic aza-heterocycles and analogues as sirtuin modulators” (GlaxoSmithKline, LLC, priority 2012, dated 2018)
# Like-named read-outs stand apart in the source and are kept apart here.
# Target: T1, SIRT1 (Homo sapiens, UniProt Q96EB6)
# T1 sequence (Q96EB6 1-747): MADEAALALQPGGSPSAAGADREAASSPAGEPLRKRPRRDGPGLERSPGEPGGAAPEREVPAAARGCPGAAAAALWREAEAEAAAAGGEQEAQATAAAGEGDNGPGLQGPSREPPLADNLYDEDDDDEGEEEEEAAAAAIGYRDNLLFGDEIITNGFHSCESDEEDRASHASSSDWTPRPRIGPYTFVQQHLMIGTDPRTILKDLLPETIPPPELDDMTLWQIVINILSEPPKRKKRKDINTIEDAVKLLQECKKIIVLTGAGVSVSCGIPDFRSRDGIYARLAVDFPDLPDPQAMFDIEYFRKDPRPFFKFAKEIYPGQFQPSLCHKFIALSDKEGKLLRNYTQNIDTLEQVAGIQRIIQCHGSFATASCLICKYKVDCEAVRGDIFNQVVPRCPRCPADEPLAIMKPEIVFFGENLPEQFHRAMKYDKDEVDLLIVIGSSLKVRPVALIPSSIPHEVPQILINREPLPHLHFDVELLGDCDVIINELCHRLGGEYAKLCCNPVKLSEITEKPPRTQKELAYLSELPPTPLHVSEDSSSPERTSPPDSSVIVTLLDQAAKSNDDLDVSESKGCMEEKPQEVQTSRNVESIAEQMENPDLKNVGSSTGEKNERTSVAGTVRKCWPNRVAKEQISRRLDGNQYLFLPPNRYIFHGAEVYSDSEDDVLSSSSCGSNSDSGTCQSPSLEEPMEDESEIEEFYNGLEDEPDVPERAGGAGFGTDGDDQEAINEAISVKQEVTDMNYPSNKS
# Assay: TAMRA based mass spectrometry assay of SIRT1 activity
# Format: biochemical
# Conditions: for Emax: read-out: TAMRA % Fold Act
# Source text: Mass spectrometry based assays were used to identify modulators of SIRT1 activity. The TAMRA based assay utilized a peptide having 20 amino acid residues as follows: Ac-EE-K(biotin)-[…](Ac)NleSTEG-K(5TMR)-EE-NH2 (SEQ ID NO: 1), wherein K(Ac) is an acetylated lysine residue and Nle is a norleucine. The peptide was labeled with the fluorophore 5TMR (excitation 540 nm/emission 580 nm) at the C-terminus. The sequence of the peptide substrate was based on p53 with several modifications. In addition, the methionine residue naturally present in the sequence was replaced with the norleucine because the methionine may be susceptible to oxidation during synthesis and purification. The Trp based assay utilized a peptide having an amino acid residues as follows: Ac-R-H-K-K(Ac)-W-NH2 (SEQ ID NO: 2).
# The TAMRA based mass spectrometry assay was conducted as follows: 0.5 μM peptide substrate and 120 μM βNAD^+ was incubated with 10 nM SIRT1 for 25 minutes at 25° C. in a reaction buffer (50 mM Tris-acetate pH 8, 137 mM NaCl, 2.7 mM KCl, 1 mM MgCl2, 5 mM DTT, 0.05% BSA). The SIRT1 protein was obtained by cloning the SirT1 gene into a T7-promoter containing vector, which was then transformed and expressed in BL21(DE3) bacterial cells. Test compound was added at varying concentrations to this reaction mixture and the resulting reactions were monitored. After the 25 minute incubation with SIRT1, 10 μL of 10% formic acid was added to stop the reaction. The resulting reactions were sealed and frozen for later mass spec analysis. Determination of the amount of deacetylated substrate peptide formed (or, alternatively, the amount of O-acetyl-ADP-ribose (OAADPR) generated) by the sirtuin-mediated NAD-dependent deacetylation reaction allowed for the precise measurement of relative SIRT1 activity in the presence of varying concentrations of the test compound versus control reactions lacking the test compound.
# A control for inhibition of sirtuin activity was conducted by adding 1 μL of 500 mM nicotinamide as a negative control at the start of the reaction (e.g., permits determination of maximum sirtuin inhibition). A control for activation of sirtuin activity was conducted using 10 nM of sirtuin protein, with 1 μL of DMSO in place of compound, to determine the amount of deacetylation of the substrate at a given time point within the linear range of the assay. This time point was the same as that used for test compounds and, within the linear range, the endpoint represents a change in velocity.
# For the above assay, SIRT1 protein was expressed and purified as follows. The SirT1 gene was cloned into a T7-promoter containing vector and transformed into BL21(DE3). The protein was expressed by induction with 1 mM IPTG as an N-terminal His-tag fusion protein at 18° C. overnight and harvested at 30,000×g. Cells were lysed with lysozyme in lysis buffer (50 mM Tris-HCl, 2 mM Tris[2-carboxyethyl]phosphine (TCEP), 10 μM ZnCl2, 200 mM NaCl) and further treated with sonication for […] for complete lysis. The protein was purified over a Ni-NTA column (Amersham) and fractions containing pure protein were pooled, concentrated and run over a sizing column (Sephadex S200 26/60 global). The peak containing soluble protein was collected and run on an Ion-exchange column (MonoQ). Gradient elution (200 mM-500 mM NaCl) yielded pure protein. This protein was concentrated and dialyzed against dialysis buffer (20 mM Tris-HCl, 2 mM TCEP) overnight. The protein was aliquoted and frozen at −80° C. until further use.
# [1] = concentration of test compound giving 150% activation of SIRT1, TAMRA peptide substrate
# [2] = percent maximum fold activation of SIRT1, TAMRA peptide substrate
# [3] = TAMRA assay, concentration giving 150% activation of SIRT1
# [4] = TAMRA assay, percent maximum fold activation
# [5] = TAMRA peptide substrate, concentration giving 150% activation of SIRT1
# [6] = TAMRA peptide substrate, percent maximum fold activation
TAMRA EC1.5 (μM) [1],Emax [2] [%],TAMRA EC1.5 (μM) [3],Emax [4] [%],Structure (SMILES),further results
A (EC1.5<1 μM),≥ 350,,,O=C(Nc1ccccn1)c1cnc2ccc(-c3ccccc3C(F)(F)F)nn12 [Compound 16],
B (EC1.5 1-25 μM),≥ 350,,,O=C(Nc1nccs1)c1cnc2ccc(-c3ccccc3C(F)(F)F)nn12 [Compound 15],
B (EC1.5 1-25 μM),< 350,,,O=C(Nc1cccc(CN2CCOCC2)n1)c1cnc2ccc(-c3cc(F)ccc3F)nn12 [Compound 30],
A (EC1.5<1 μM),< 350,,,Cc1nc(C)c(-c2ccc3ncc(C(=O)Nc4cccc(N5CCOCC5)n4)n3n2)s1 [Compound 65],
,,B (EC1.5 1-25 μM),< 350,O=C(Nc1cnc2ccc(-c3ccccc3F)nn12)c1cnccn1 [Compound 280],
A (EC1.5<1 μM),≥ 350,,,Cc1cc(-c2ccccc2C(F)(F)F)nn2c(C(=O)Nc3cccc(CN4CCOCC4)n3)cnc12 [Compound 195],
,,A (EC1.5<1 μM),< 350,Cc1nc(C(=O)Nc2cnc3ccc(-c4ccccc4F)nn23)c(C)s1 [Compound 300],
A (EC1.5<1 μM),≥ 350,,,"O=C(Nc1cccc(CN2CCOCC2)n1)c1cnc2ccc(-c3ccccc3C(F)(F)F)nn12 [Compound 19, N-(6-(morpholinomethyl)pyridin-2-yl)-6-(2-(trifluoromethyl)phenyl)imidazo[1,2-b]pyridazine-3-carboxamide]",
B (EC1.5 1-25 μM),< 350,,,O=C(Nc1ccccn1)c1cnc2ccc(-c3c(F)cccc3Cl)nn12 [Compound 162],
A (EC1.5<1 μM),< 350,,,O=C(Nc1cccc(N2CCOCC2)n1)c1cnc2ccc(-c3cncc(C(F)F)c3)nn12 [Compound 60],
B (EC1.5 1-25 μM),< 350,,,O=C(Nc1cccc(CN2CCOCC2)n1)c1cnc2ccc(-c3ccc(F)c(F)c3F)nn12 [Compound 127],
C (EC1.5>25 μM),< 350,,,O=C(Nc1ccccn1)c1cnc2ccc(-c3ccc(F)c(F)c3F)nn12 [Compound 129],
B (EC1.5 1-25 μM),< 350,,,O=C(Nc1ccnc(N2CCCC2)c1)c1cnc2ccc(-c3cncc(C(F)F)c3)nn12 [Compound 61],
A (EC1.5<1 μM),≥ 350,,,Cc1cnc(NC(=O)c2cnc3ccc(-c4ccccc4C(F)(F)F)nn23)s1 [Compound 109],
B (EC1.5 1-25 μM),< 350,,,O=C(Nc1nccs1)c1cnc2ccc(-c3cccc(OC(F)(F)F)c3)nn12 [Compound 7],

# The remaining lines, values behind:
Structure (SMILES),TAMRA EC1.5 (μM) [1],Emax [2] [%],TAMRA EC1.5 (μM) [3],Emax [4] [%],further results
Cc1nccc(C(=O)Nc2cnn3ccc(-c4ccccc4OC(F)(F)F)nc23)n1 [Compound 726],,,A (EC1.5<1 μM),≥ 350,
Cc1cc2ncc(NC(=O)c3cccc(N4CCOCC4)n3)n2nc1-c1ccccc1C(F)(F)F [Compound 435],,,,,TAMRA EC1.5 [5]: A (EC1.5<1 μM); Emax [6]: ≥ 350%
CC(C)c1csc(C(=O)Nc2cnn3ccc(-c4ccccc4OC(F)(F)F)nc23)n1 [Compound 771],,,A (EC1.5<1 μM),≥ 350,
O=C(Nc1cnc2ccc(-c3ccccc3Cl)nn12)c1ccncn1 [Compound 289],,,B (EC1.5 1-25 μM),< 350,
Cc1cnc(C(=O)Nc2cnc3ccc(-c4ccccc4Cl)nn23)s1 [Compound 306],,,B (EC1.5 1-25 μM),≥ 350,
Cc1ccc(NC(=O)c2cnn3ccc(-c4ccccc4C(F)(F)F)nc23)nn1 [Compound 655],,,A (EC1.5<1 μM),≥ 350,
Cc1cnc(NC(=O)c2c(C)nn3ccc(-c4ccccc4C(F)(F)F)nc23)c(C)n1 [Compound 753],,,B (EC1.5 1-25 μM),≥ 350,
O=C(Nc1ccccn1)c1c(O)nc2ccc(-c3ccccc3C(F)(F)F)nn12 [Compound 324],,,B (EC1.5 1-25 μM),< 350,
O=C(Nc1cccc(N2CC3(CCO3)C2)n1)c1cnc2ccc(-c3ccccc3C(F)(F)F)nn12 [Compound 538],,,,,TAMRA EC1.5 [5]: A (EC1.5<1 μM); Emax [6]: ≥ 350%
Cc1cccc(NC(=O)c2cnn3ccc(-c4ccccc4C(F)(F)F)nc23)n1 [Compound 500],,,,,TAMRA EC1.5 [5]: A (EC1.5<1 μM); Emax [6]: ≥ 350%
Cc1cc(NC(=O)c2cnn3ccc(-c4ccccc4OC(F)(F)F)nc23)cc(C)n1 [Compound 611],,,A (EC1.5<1 μM),≥ 350,
Cc1nc2ccc(-c3ccccc3C(F)(F)F)nn2c1C(=O)Nc1nccc(N2CCCC2)n1 [Compound 669],,,A (EC1.5<1 μM),≥ 350,
O=C(Nc1cnn2ccc(-c3ccccc3C(F)(F)F)nc12)c1nccs1 [Compound 563],,,,,TAMRA EC1.5 [5]: A (EC1.5<1 μM); Emax [6]: ≥ 350%
Cc1cc(C)nc(C(=O)Nc2cnc3c(C)c(C)c(-c4ccccc4C(F)(F)F)nn23)n1 [Compound 420],,,,,TAMRA EC1.5 [5]: A (EC1.5<1 μM); Emax [6]: ≥ 350%
COCCOc1cc(NC(=O)c2cnc3c(C)cc(-c4ccccc4C(F)(F)F)nn23)ncn1 [Compound 662],,,A (EC1.5<1 μM),< 350,
O=C(Nc1cnc2ccc(-c3ccccc3C(F)(F)F)nn12)c1cccc(-n2cnnc2)n1 [Compound 438],,,,,TAMRA EC1.5 [5]: A (EC1.5<1 μM); Emax [6]: ≥ 350%
Cc1nc2ccc(-c3cccc(OC[C@H](O)CO)c3)nn2c1C(=O)Nc1ccncc1F [Compound 822],,,A (EC1.5<1 μM),< 350,
Cc1nc2c(C)cc(-c3ccccc3C(F)(F)F)nn2c1C(=O)Nc1cccc(N2CC3(CCO3)C2)n1 [Compound 544],,,,,TAMRA EC1.5 [5]: A (EC1.5<1 μM); Emax [6]: ≥ 350%
O=C(Nc1ccccn1)c1ncn2ccc(-c3ccccc3C(F)(F)F)nc12 [Compound 450],,,,,TAMRA EC1.5 [5]: B (EC1.5 1-25 μM); Emax [6]: ≥ 350%
COc1cncnc1NC(=O)c1c(C)nc2ccc(-c3ccccc3C(F)(F)F)nn12 [Compound 670],,,A (EC1.5<1 μM),≥ 350,
O=C(Nc1nccs1)c1cnn2ccc(-c3ccccc3OC(F)(F)F)nc12 [Compound 607],,,B (EC1.5 1-25 μM),< 350,
COc1ccc(NC(=O)c2cnn3ccc(-c4ccccc4OC(F)(F)F)nc23)nn1 [Compound 635],,,A (EC1.5<1 μM),≥ 350,
O=C(Nc1cnn2ccc(-c3ccccc3OC(F)(F)F)nc12)c1ccccn1 [Compound 581],,,,,TAMRA EC1.5 [5]: A (EC1.5<1 μM); Emax [6]: ≥ 350%
